Measured values taken from PubChem BioAssay (NCI).
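Cells were grown in 96-well plates and exposed to each compound for 48 hours at five concentrations; endpoints were interpolated linearly between bracketing concentrations, or set to the highest concentration if not reached. The concentration for full growth arrest is given as TGI.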

What was measured:
Assay in all cases: inhibition of tumour cell growth, NCI panel, 48 h
NCI-H522 lung = tested on: NCI-H522 lung
OVCAR-4 ovarian = tested on: OVCAR-4 ovarian
M14 melanoma = tested on: M14 melanoma
HL-60(TB) leukemia = tested on: HL-60(TB) leukemia
786-0 renal = tested on: 786-0 renal
K-562 leukemia = tested on: K-562 leukemia
NCI/ADR-RES ovarian = tested on: NCI/ADR-RES ovarian
T-47D breast = tested on: T-47D breast
MALME-3M melanoma = tested on: MALME-3M melanoma
NCI-H226 lung = tested on: NCI-H226 lung
SK-MEL-5 melanoma = tested on: SK-MEL-5 melanoma
UACC-257 melanoma = tested on: UACC-257 melanoma
CAKI-1 renal = tested on: CAKI-1 renal
UO-31 renal = tested on: UO-31 renal
OVCAR-8 ovarian = tested on: OVCAR-8 ovarian
A498 renal = tested on: A498 renal
EKVX NSCLC = tested on: EKVX NSCLC
HCC-2998 colon = tested on: HCC-2998 colon
NCI-H23 lung = tested on: NCI-H23 lung
SNB-75 CNS = tested on: SNB-75 CNS
HS 578T breast = tested on: HS 578T breast
ACHN renal = tested on: ACHN renal
DU-145 prostate = tested on: DU-145 prostate
HCT-116 colon = tested on: HCT-116 colon
HOP-92 NSCLC = tested on: HOP-92 NSCLC
MDA-N = tested on: MDA-N
SR leukemia = tested on: SR leukemia
A549 NSCLC = tested on: A549 NSCLC
OVCAR-5 ovarian = tested on: OVCAR-5 ovarian
BT-549 breast = tested on: BT-549 breast
RXF 393 renal = tested on: RXF 393 renal
NCI-H460 lung = tested on: NCI-H460 lung
MDA-MB-231 breast = tested on: MDA-MB-231 breast
SN12C renal = tested on: SN12C renal
SF-268 CNS = tested on: SF-268 CNS
KM12 colon = tested on: KM12 colon
SK-MEL-2 melanoma = tested on: SK-MEL-2 melanoma
HT29 colon = tested on: HT29 colon
SK-MEL-28 melanoma = tested on: SK-MEL-28 melanoma
SW-620 colon = tested on: SW-620 colon
LOX IMVI melanoma = tested on: LOX IMVI melanoma
SK-OV-3 ovarian = tested on: SK-OV-3 ovarian
COLO 205 colon = tested on: COLO 205 colon
MDA-MB-435 = tested on: MDA-MB-435
RPMI-8226 leukemia = tested on: RPMI-8226 leukemia
IGROV1 ovarian = tested on: IGROV1 ovarian
CCRF-CEM leukemia = tested on: CCRF-CEM leukemia
SF-539 CNS = tested on: SF-539 CNS
HOP-62 NSCLC = tested on: HOP-62 NSCLC
TK-10 renal = tested on: TK-10 renal
SF-295 CNS = tested on: SF-295 CNS
HCT-15 colon = tested on: HCT-15 colon
OVCAR-3 ovarian = tested on: OVCAR-3 ovarian
MOLT-4 leukemia = tested on: MOLT-4 leukemia

SMILES: O=C(NC1CCCCC1)N1CCNC1=S
- TGI (NCI-H522 lung): > 100 µM
- TGI (OVCAR-4 ovarian): > 100 µM
- TGI (M14 melanoma): > 100 µM
- TGI (HL-60(TB) leukemia): > 100 µM
- TGI (786-0 renal): > 100 µM
- TGI (K-562 leukemia): > 100 µM
- TGI (NCI/ADR-RES ovarian): > 100 µM
- TGI (T-47D breast): > 100 µM
- TGI (MALME-3M melanoma): > 100 µM
- TGI (NCI-H226 lung): > 100 µM
- TGI (SK-MEL-5 melanoma): > 100 µM
- TGI (UACC-257 melanoma): > 100 µM
- TGI (CAKI-1 renal): > 100 µM
- TGI (UO-31 renal): > 100 µM
- TGI (OVCAR-8 ovarian): > 100 µM
- TGI (A498 renal): > 100 µM
- TGI (EKVX NSCLC): > 100 µM
- TGI (HCC-2998 colon): > 100 µM
- TGI (NCI-H23 lung): > 100 µM
- TGI (SNB-75 CNS): > 100 µM
- TGI (HS 578T breast): > 100 µM
- TGI (ACHN renal): > 100 µM
- TGI (DU-145 prostate): > 100 µM
- TGI (HCT-116 colon): > 100 µM
- TGI (HOP-92 NSCLC): > 100 µM
- TGI (MDA-N): > 100 µM
- TGI (SR leukemia): > 100 µM
- TGI (A549 NSCLC): > 100 µM
- TGI (OVCAR-5 ovarian): > 100 µM
- TGI (BT-549 breast): > 100 µM
- TGI (RXF 393 renal): > 100 µM
- TGI (NCI-H460 lung): > 100 µM
- TGI (MDA-MB-231 breast): 8.05 µM
- TGI (SN12C renal): > 100 µM
- TGI (SF-268 CNS): > 100 µM
- TGI (KM12 colon): > 100 µM
- TGI (SK-MEL-2 melanoma): 7.09 µM
- TGI (HT29 colon): > 100 µM
- TGI (SK-MEL-28 melanoma): > 100 µM
- TGI (SW-620 colon): > 100 µM
- TGI (LOX IMVI melanoma): > 100 µM
- TGI (SK-OV-3 ovarian): > 100 µM
- TGI (COLO 205 colon): > 100 µM
- TGI (MDA-MB-435): > 100 µM
- TGI (RPMI-8226 leukemia): > 100 µM
- TGI (IGROV1 ovarian): > 100 µM
- TGI (CCRF-CEM leukemia): > 100 µM
- TGI (SF-539 CNS): > 100 µM
- TGI (HOP-62 NSCLC): > 100 µM
- TGI (TK-10 renal): > 100 µM
- TGI (SF-295 CNS): > 100 µM
- TGI (HCT-15 colon): > 100 µM
- TGI (OVCAR-3 ovarian): > 100 µM
- TGI (MOLT-4 leukemia): > 100 µM
